Several values for one entry are separate records, joined by “and”; a condition that tells them apart may be missing. Equal values may be shown once. Toxic doses and inconclusive results are not listed.
Test system: L1210 leukemia ip in BDF1 mice, survival T/C
Assay: NCI In Vivo Anticancer Drug Screen. Data for tumor model L1210 Leukemia (intraperitoneal) in B6D2F1 (BDF1) mice
Conditions: endpoint: mean survival time, higher = longer survival
Method in brief: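 Tumor cells were implanted, animals were treated, and survival was followed. The result divides the treated measurement by the vehicle-control measurement.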

[1] = dose: 50.0 mg/kg/injection, schedule: Q01DX001 (ip), vehicle: saline
[2] = dose: 100.0 mg/kg/injection, schedule: Q01DX001 (ip), vehicle: saline
[3] = dose: 200.0 mg/kg/injection, schedule: Q01DX001 (ip), vehicle: saline
[4] = dose: 400.0 mg/kg/injection, schedule: Q01DX001 (ip), vehicle: saline
[5] = dose: 100.0 mg/kg/injection, schedule: Q04DX003 (ip), vehicle: Klucel (hydroxypropylcellulose) (HPC)
[6] = dose: 200.0 mg/kg/injection, schedule: Q04DX003 (ip), vehicle: Klucel (hydroxypropylcellulose) (HPC)
[7] = dose: 400.0 mg/kg/injection, schedule: Q04DX003 (ip), vehicle: Klucel (hydroxypropylcellulose) (HPC)
[8] = dose: 100.0 mg/kg/injection, schedule: Q01DX009 (ip), vehicle: Klucel (hydroxypropylcellulose) (HPC)
[9] = dose: 200.0 mg/kg/injection, schedule: Q01DX009 (ip), vehicle: Klucel (hydroxypropylcellulose) (HPC)
[10] = dose: 100.0 mg/kg/injection, schedule: Q01DX009 (ip), vehicle: saline with Tween-80
[11] = dose: 200.0 mg/kg/injection, schedule: Q01DX009 (ip), vehicle: saline with Tween-80
[12] = dose: 75.0 mg/kg/injection, schedule: Q01DX001 (ip), vehicle: saline
[13] = dose: 150.0 mg/kg/injection, schedule: Q01DX001 (ip), vehicle: saline
[14] = dose: 300.0 mg/kg/injection, schedule: Q01DX001 (ip), vehicle: saline
[15] = dose: 100.0 mg/kg/injection, schedule: Q01DX009 (ip), vehicle: saline
[16] = dose: 100.0 mg/kg/injection, schedule: Q04DX003 (ip), vehicle: saline
[17] = dose: 200.0 mg/kg/injection, schedule: Q04DX003 (ip), vehicle: saline
[18] = dose: 400.0 mg/kg/injection, schedule: Q04DX003 (ip), vehicle: saline
[19] = dose: 100.0 mg/kg/injection, schedule: Q04DX002 (ip), vehicle: Klucel (hydroxypropylcellulose) (HPC)
[20] = dose: 200.0 mg/kg/injection, schedule: Q04DX002 (ip), vehicle: Klucel (hydroxypropylcellulose) (HPC)
[21] = dose: 400.0 mg/kg/injection, schedule: Q04DX002 (ip), vehicle: Klucel (hydroxypropylcellulose) (HPC)

COc1ccc(C2(OC)Oc3cc(OC)ccc3-c3nc4ccccc4nc32)cc1 (centres undefined) was tested, and the T/C [1] was 101 % of control, the T/C [2] was 101 % of control and the T/C [3] was 95 % of control. For the same molecule, the T/C [4] was 101 % of control.

For CCOC(=O)c1[nH]c(-c2ccccc2)cc1-c1ccccc1, the T/C [5] was 118 % of control, the T/C [6] was 108 % of control and the T/C [7] was 108 % of control.

With CCOC(=O)CC1=NC(C)(C)CC(C)O1 (centres undefined) the T/C (dose: 100.0 mg/kg/injection, schedule: Q04DX003 (ip), vehicle: saline sonified) was 98 % of control, the T/C (dose: 200.0 mg/kg/injection, schedule: Q04DX003 (ip), vehicle: saline sonified) was 92 % of control and the T/C (dose: 400.0 mg/kg/injection, schedule: Q04DX003 (ip), vehicle: saline sonified) was 115 % of control.

For Fc1c(F)c(Oc2c(F)c(F)c(C(F)(F)F)c(F)c2F)c(F)c(Oc2c(F)c(F)c(C(F)(F)F)c(F)c2F)c1F, the T/C (dose: 100.0 mg/kg/injection, schedule: Q01DX001 (ip), vehicle: Klucel (hydroxypropylcellulose) (HPC)) was 96 % of control, the T/C [5] was 98 % of control and the T/C (dose: 200.0 mg/kg/injection, schedule: Q01DX001 (ip), vehicle: Klucel (hydroxypropylcellulose) (HPC)) was 100 % of control. For the same molecule, the T/C [6] was 95 % of control, the T/C (dose: 400.0 mg/kg/injection, schedule: Q01DX001 (ip), vehicle: Klucel (hydroxypropylcellulose) (HPC)) was 89 % of control and the T/C [7] was 97 % of control.

In the case of O=C(NC1CCCCC1)OCCOc1ccccc1, the T/C [8] is reported as 95 % of control, the T/C [9] is reported as 103 % of control and the T/C (dose: 400.0 mg/kg/injection, schedule: Q01DX009 (ip), vehicle: Klucel (hydroxypropylcellulose) (HPC)) is reported as 97 % of control.

O=C(N/C=C/NC(=O)NCc1ccco1)NCc1ccco1 was tested, and the T/C [8] was 97 % of control and the T/C [9] was 87 % of control.

For COc1ncccn1, the T/C (dose: 75.0 mg/kg/injection, schedule: Q01DX009 (ip), vehicle: saline) was 93 % of control.

CC(O)(C#CC(C)(O)c1ccccc1)c1ccccc1 (centres undefined) was tested, and the T/C [10] was 97 % of control, the T/C [11] was 98 % of control and the T/C (dose: 400.0 mg/kg/injection, schedule: Q01DX009 (ip), vehicle: saline with Tween-80) was 113 % of control.

O=C1Cc2ccccc2C(C(=O)O)O1 (centres undefined) was tested, and the T/C [12] was 107 % of control, the T/C [13] was 101 % of control and the T/C [14] was 107 % of control.

With O=C(O)CCCSCCSCCCC(=O)O the T/C [15] was 97 % of control, the T/C (dose: 200.0 mg/kg/injection, schedule: Q01DX009 (ip), vehicle: saline) was 103 % of control and the T/C (dose: 400.0 mg/kg/injection, schedule: Q01DX009 (ip), vehicle: saline) was 86 % of control.

Cc1cc(Cl)ccc1NC(=O)Nc1ccc(Cl)c(Cl)c1 was tested, and the T/C [5] was 88 % of control, the T/C [6] was 90 % of control and the T/C [7] was 98 % of control and 88 % of control.

For CC1(C)C(=NNc2ccccc2)C(C)(C)C1=NNc1ccccc1, the T/C (dose: 25.0 mg/kg/injection, schedule: Q01DX009 (ip), vehicle: Klucel (hydroxypropylcellulose) (HPC)) was 93 % of control, the T/C [8] was 93 % of control and 88 % of control and the T/C [5] was 97 % of control. For the same molecule, the T/C [6] was 96 % of control and the T/C [7] was 97 % of control.

In the case of NC(=O)C(CCO)n1ccc(N)nc1=O (centres undefined), the T/C [2] is reported as 94 % of control, the T/C [3] is reported as 98 % of control and the T/C [4] is reported as 102 % of control.

In the case of C/C(=N\N=C(N)N)c1cccs1, the T/C (dose: 7.0 mg/kg/injection, schedule: Q01DX Z (oral), vehicle: carboxymethylcellulose (CMC)) is reported as 101 % of control and the T/C (dose: 15.0 mg/kg/injection, schedule: Q01DX Z (oral), vehicle: carboxymethylcellulose (CMC)) is reported as 91 % of control.

For Nc1ncc(N)c(N)n1, the T/C (dose: 21.0 mg/kg/injection, schedule: Q01DX Z (ip), vehicle: saline) was 101 % of control, the T/C (dose: 25.0 mg/kg/injection, schedule: Q01DX Z (ip), vehicle: carboxymethylcellulose (CMC)) was 109 % of control and the T/C (dose: 31.0 mg/kg/injection, schedule: Q01DX Z (ip), vehicle: saline) was 106 % of control. For the same molecule, the T/C (dose: 47.0 mg/kg/injection, schedule: Q01DX Z (ip), vehicle: saline) was 121 % of control, the T/C [1] was 106 % of control and the T/C [2] was 103 % of control. The T/C [16] was 112 % of control, the T/C (dose: 117.0 mg/kg/injection, schedule: Q01DX009 (ip), vehicle: saline with Tween-80) was 116 % of control and the T/C (dose: 125.0 mg/kg/injection, schedule: Q01DX001 (ip), vehicle: carboxymethylcellulose (CMC)) was 101 % of control and 118 % of control. The T/C (dose: 125.0 mg/kg/injection, schedule: Q## X001 (ip), vehicle: carboxymethylcellulose (CMC)) was 110 % of control, the T/C [3] was 103 % of control and the T/C [17] was 117 % of control. For the same molecule, the T/C (dose: 240.0 mg/kg/injection, schedule: Q04DX003 (ip), vehicle: saline) was 111 % of control, the T/C (dose: 250.0 mg/kg/injection, schedule: Q01DX001 (ip), vehicle: carboxymethylcellulose (CMC)) was 102 % of control and 108 % of control and the T/C (dose: 250.0 mg/kg/injection, schedule: Q## X001 (ip), vehicle: carboxymethylcellulose (CMC)) was 111 % of control. For the same molecule, the T/C (dose: 360.0 mg/kg/injection, schedule: Q01DX Z (ip), vehicle: carboxymethylcellulose (CMC)) was 159 % of control, the T/C (dose: 360.0 mg/kg/injection, schedule: Q04DX003 (ip), vehicle: saline) was 108 % of control and the T/C [4] was 97 % of control. For the same molecule, the T/C [18] was 118 % of control, the T/C (dose: 500.0 mg/kg/injection, schedule: Q01DX001 (ip), vehicle: carboxymethylcellulose (CMC)) was 98 % of control and 117 % of control and the T/C (dose: 500.0 mg/kg/injection, schedule: Q01DX Z (ip), vehicle: carboxymethylcellulose (CMC)) was 160 % of control. The T/C (dose: 500.0 mg/kg/injection, schedule: Q## X001 (ip), vehicle: carboxymethylcellulose (CMC)) was 105 % of control, the T/C (dose: 810.0 mg/kg/injection, schedule: Q01DX Z (ip), vehicle: saline) was 86 % of control and the T/C (dose: 1000.0 mg/kg/injection, schedule: Q01DX001 (ip), vehicle: carboxymethylcellulose (CMC)) was 102 % of control and 112 % of control. The T/C (dose: 1000.0 mg/kg/injection, schedule: Q## X001 (ip), vehicle: carboxymethylcellulose (CMC)) was 98 % of control.

With Cc1cc(C)c(-c2c(C)cc(C)c([N+](=O)[O-])c2C)c(C)c1N the T/C (dose: 75.0 mg/kg/injection, schedule: Q01DX009 (ip), vehicle: Klucel (hydroxypropylcellulose) (HPC)) was 100 % of control, the T/C (dose: 75.0 mg/kg/injection, schedule: Q04DX003 (ip), vehicle: Klucel (hydroxypropylcellulose) (HPC)) was 98 % of control and the T/C (dose: 150.0 mg/kg/injection, schedule: Q01DX009 (ip), vehicle: Klucel (hydroxypropylcellulose) (HPC)) was 105 % of control. For the same molecule, the T/C (dose: 150.0 mg/kg/injection, schedule: Q04DX003 (ip), vehicle: Klucel (hydroxypropylcellulose) (HPC)) was 101 % of control, the T/C (dose: 300.0 mg/kg/injection, schedule: Q01DX009 (ip), vehicle: Klucel (hydroxypropylcellulose) (HPC)) was 100 % of control and the T/C (dose: 300.0 mg/kg/injection, schedule: Q04DX003 (ip), vehicle: Klucel (hydroxypropylcellulose) (HPC)) was 93 % of control.

In the case of OC(c1ccccc1)C(Nc1ccccc1)c1ccccc1 (centres undefined), the T/C [12] is reported as 102 % of control, the T/C (dose: 100.0 mg/kg/injection, schedule: Q04DX003 (ip), vehicle: saline with Tween-80) is reported as 96 % of control and the T/C [13] is reported as 94 % of control. For the same molecule, the T/C (dose: 200.0 mg/kg/injection, schedule: Q04DX003 (ip), vehicle: saline with Tween-80) was 98 % of control, the T/C [14] was 97 % of control and the T/C (dose: 400.0 mg/kg/injection, schedule: Q04DX003 (ip), vehicle: saline with Tween-80) was 93 % of control.

CN(C)C(=O)N/N=C/c1ccc(Cl)cc1 was tested, and the T/C [10] was 95 % of control and the T/C [11] was 92 % of control.

With CSc1nc2nc(Cl)c(Cl)nc2[nH]1 the T/C (dose: 12.5 mg/kg/injection, schedule: Q01DX009 (ip), vehicle: saline) was 105 % of control, the T/C (dose: 25.0 mg/kg/injection, schedule: Q01DX009 (ip), vehicle: saline) was 102 % of control and 104 % of control and the T/C (dose: 50.0 mg/kg/injection, schedule: Q01DX009 (ip), vehicle: saline) was 102 % of control. For the same molecule, the T/C [15] was 98 % of control, the T/C [16] was 97 % of control and the T/C [17] was 98 % of control. The T/C [18] was 108 % of control.

For ClB(Cl)c1ccc(Br)cc1, the T/C [2] was 97 % of control, the T/C [3] was 86 % of control and the T/C [4] was 95 % of control.

In the case of O=C(Nc1ccc(Cl)cc1)O/C(=C(/OC(=O)Nc1ccc(Cl)cc1)c1ccc(Cl)cc1)c1ccc(Cl)cc1, the T/C [19] is reported as 96 % of control, the T/C [20] is reported as 92 % of control and the T/C [21] is reported as 89 % of control.

For Cc1cccc(NC(=O)Nc2ccccc2Cl)n1, the T/C [19] was 87 % of control, the T/C [20] was 87 % of control and the T/C [21] was 90 % of control.
